Experimental data from US20060286105A1, “Tgf-beta antagonists combined with renin-angiotensin-aldosteron-system antagonists for treating renal insufficiency” (priority 2003, published 2006).

Columns and labels:
[1] = target: TGF-β; assay: Antigen affinity and isoform specificity of anti-TGF-β antibodies; type: binding
Text: The epitopes for 1[…] al. (1998) J. Immunol., 142:1536-1541) and CAT192 have been mapped to the C-terminal portion of mature TGF-β.

[2] = system: diabetic rats; assay: Systolic blood pressure by tail plethysmography in diabetic rats (Example 3); type: in vivo, rat; conditions: uninephrectomized STZ-diabetic rats; treated months 4-8; antibody 0.5 mg/kg i.p. 3x/week, lisinopril 12.5 mg/l drinking water; FIG. 2
Experimental: Male Sprague-Dawley rats with initial body weights of 250 to 300 g were used in this study. Animal care and treatment were conducted in accordance with the U.S. […] All animals were housed in a room in which the temperature was kept constant on a 12-hour dark/12-hour light cycle and allowed free access to standard diet containing 20% protein by weight and tap water. The animals were subjected to unilateral nephrectomy under anaesthesia one week prior to the induction of diabetes to accelerate the onset of renal disease. The animals were rendered diabetic by a single intravenous (i.v.) injection of streptozotocin (STZ, Zanosar, Upjohn, Kalamazoo, Mich.; 60 mg/kg body weight). Food and water consumption, weight gain and the blood glucose levels were monitored to determine the degree of diabetes. The blood was obtained from the tip of the tails and analyzed by a modified glucose dehydrogenase method. […] Four months, after the induction of diabetes, animals were divided into seven groups of eight (unless otherwise indicated), which were treated for the next four months as follows: Animals were treated as described in Example 1. Systolic blood pressure at the end of the treatment period was recorded by tail plethysmography in conscious rats as described in Pfeffer et al.

[3] = system: diabetic rats; assay: Glomerular sclerosis, renal histology in diabetic rats (Example 4); type: in vivo, rat; conditions: uninephrectomized STZ-diabetic rats; treated months 4-8; antibody 0.5 mg/kg i.p. 3x/week, lisinopril 12.5 mg/l drinking water; FIG. 3
Experimental: Animals were treated as described in Example 1. At the end of the study, rat kidneys were harvested and fixed with 5% buffered formalin solution, embedded in paraffin, sectioned and stained with periodic acid-Schiff (PAS) for light microscopy analyses.
Glomerular diameters were measured and the degree of matrix expansion and glomerular injury was assessed on a minimum of 100 glomeruli/section. The degree of glomerulosclerosis was scored as previously described (Raij et al. (1984) Kidney Int., 26:137-143). The percentage of glomerular sclerosis was determined by an unbiased, trained pathologist who recorded pathologic changes using a 0-4 scale (score of 0 indicates no damage; 1+ indicates changes affecting less than 25% of the samples; 2+ indicates changes affecting 25- 50% of the sample; 3+, changes affecting 50-75% of the sample; 4+ changes affecting 75-100% of the sample).

[4] = system: diabetic rats; assay: Systolic blood pressure by tail cuff, early phase treatment (Example 8); type: in vivo, rat; conditions: mean ± SE
Experimental: (§1) Male Sprague-Dawley rats with initial body weight of 250-275 g were studied. All animals were allowed free access to standard diet and tap water. Diabetes was induced by a single intravenous injection of streptozotocin (60 mg/kg body weight). […] Blood glucose levels were monitored at least once a week in all diabetic rats and occasionally in control animals for comparison. Diabetic rats were divided into 3 groups (n=6 each): group 1 received a control antibody, 13C4; groups 2 and 3 received 1D11 (0.5 mg/kg i.p. three times a week) or enalapril (15 mg/l in the drinking water), respectively from 27 to 52 weeks; group 4 was normal rats. Systolic blood pressure was measured every two months after diabetic induction by the tail cuff method. The statistical analysis was performed using the nonparametric Kruskal-Wallis test for multiple comparisons.

[5] = system: diabetic rats; assay: Serum creatinine, late phase treatment (Example 9); type: in vivo, rat; conditions: weeks 52 to 61, 61 weeks, mean ± SE
Experimental: Serum creatinine was measured at the end of the study by autoanalyzer (CX5 Beckman). […] Five normal rats were used as controls. Systolic blood pressure was measured every two months after diabetes induction. […] All measurements and data analysis were performed as described in Example 8.

[6] = system: diabetic rats; assay: Renal histology, late phase treatment (Example 9); type: in vivo, rat; conditions: weeks 52 to 61, 61 weeks, mean ± SE
Experimental: Renal morphology was assessed as glomerulosclerosis, interstitial inflammation and tubular damage. Specifically, the removed kidneys were fixed overnight in Dubosq-Brazil, dehydrated in alcohol, and embedded in paraffin. Kidney samples were sectioned at 3-μm intervals, and the sections were stained with Masson's trichrome, hematoxylin and eosin, or periodic-acid Schiff reagent (PAS stain). […] All renal biopsies were analyzed by the same pathologist who was unaware of the nature of the experimental groups. […] Five normal rats were used as controls. Systolic blood pressure was measured every two months after diabetes induction. […] All measurements and data analysis were performed as described in Example 8.

[7] = system: diabetic rats; assay: Renal histology, early phase treatment (Example 8); type: in vivo, rat; conditions: weeks 27 to 52, 52 weeks, mean ± SE
Experimental: Male Sprague-Dawley rats with initial body weight of 250-275 g were studied. All animals were allowed free access to standard diet and tap water. Diabetes was induced by a single intravenous injection of streptozotocin (60 mg/kg body weight). […] Blood glucose levels were monitored at least once a week in all diabetic rats and occasionally in control animals for comparison. […] Renal morphology was assessed as glomerulosclerosis, interstitial inflammation and tubular damage. Specifically, the removed kidneys were fixed overnight in Dubosq-Brazil, dehydrated in alcohol, and embedded in paraffin. Kidney samples were sectioned at 3-μm intervals, and the sections were stained with Masson's trichrome, hematoxylin and eosin, or periodic-acid Schiff reagent (PAS stain). […] All renal biopsies were analyzed by the same pathologist who was unaware of the nature of the experimental groups. The statistical analysis was performed using the nonparametric Kruskal-Wallis test for multiple comparisons.

[8] = system: diabetic rats; assay: Proteinuria, late phase treatment of diabetic nephropathy (Example 9); type: in vivo, rat; conditions: therapy weeks 52 to 61 after STZ, 1D11 0.5 mg/kg i.p. 3x/week, enalapril 15 mg/l drinking water, FIG. 8
Experimental: (§2) Urinary excretion of proteins was measured in 24 hr urine samples collected in metabolic cages at baseline, 18, 27, 36, 45, and 52 weeks by the modified Coomassie blue G dye-binding assay for proteins.
Diabetic rats were kept as described in Example 8 and were divided into 4 groups (n=5-6 each) and given from 52 to 61 weeks after the diabetis induction the following: the irrelevant antibody 13C4; the anti-TGF-β antibody 1D11 (0.5 mg/kg i.p. three times a week); the ACE inhibitor enalapril (15 mg/l in the drinking water), or the combination of 1D11 and enalapril. Five normal rats were used as controls. Systolic blood pressure was measured every two months after diabetes induction. Urinary excretion of proteins was measured in 24 hour urine samples collected in metabolic cages at baseline, 18, 27, 36, 45, 52, and 61 weeks. All measurements and data analysis were performed as described in Example 8.

[9] = system: diabetic rats; assay: Proteinuria, early phase treatment of diabetic nephropathy (Example 8); type: in vivo, rat; conditions: therapy weeks 27 to 52 after STZ, 1D11 0.5 mg/kg i.p. 3x/week, enalapril 15 mg/l drinking water, FIG. 7
Experimental: Male Sprague-Dawley rats with initial body weight of 250-275 g were studied. All animals were allowed free access to standard diet and tap water. Diabetes was induced by a single intravenous injection of streptozotocin (60 mg/kg body weight). The presence of diabetes was confirmed 2 days later by the measurement of the tail blood glucose level with a reflectance meter. Diabetic rats received daily evening injections of insulin in doses individually adjusted to maintain a blood glucose level between 200 and 450 mg/dl. Blood glucose levels were monitored at least once a week in all diabetic rats and occasionally in control animals for comparison.
Diabetic rats were divided into 3 groups (n=6 each): group 1 received a control antibody, 13C4; groups 2 and 3 received 1D11 (0.5 mg/kg i.p. three times a week) or enalapril (15 mg/l in the drinking water), respectively from 27 to 52 weeks; group 4 was normal rats.
as §2
The statistical analysis was performed using the nonparametric Kruskal-Wallis test for multiple comparisons.

[10] = system: diabetic rats; assay: Systolic blood pressure, late phase treatment (Example 9); type: in vivo, rat; conditions: mean ± SE
Experimental: Systolic blood pressure was measured every two months after diabetic induction by the tail cuff method. […] Five normal rats were used as controls. Systolic blood pressure was measured every two months after diabetes induction. […] All measurements and data analysis were performed as described in Example 8.

[11] = system: diabetic rats; assay: Urinary albumin excretion by ELISA, early phase treatment (Example 8); type: in vivo, rat; conditions: weeks 27 to 52, at 52 weeks, mean ± SE
Experimental: as §1, with “Systolic blood pressure was measured every two months after diabetic induction by the tail cuff method.” left out

[12] = system: diabetic rats; assay: Urinary albumin excretion, late phase treatment (Example 9); type: in vivo, rat; conditions: weeks 52 to 61, at 61 weeks, mean ± SE
Experimental: Five normal rats were used as controls. Systolic blood pressure was measured every two months after diabetes induction. […] All measurements and data analysis were performed as described in Example 8.

[13] = system: diabetic rats; assay: Serum creatinine, early phase treatment (Example 8); type: in vivo, rat; conditions: weeks 27 to 52, 52 weeks, mean ± SE
Experimental: Male Sprague-Dawley rats with initial body weight of 250-275 g were studied. All animals were allowed free access to standard diet and tap water. Diabetes was induced by a single intravenous injection of streptozotocin (60 mg/kg body weight). […] Blood glucose levels were monitored at least once a week in all diabetic rats and occasionally in control animals for comparison. […] Serum creatinine was measured at the end of the study by autoanalyzer (CX5 Beckman). The statistical analysis was performed using the nonparametric Kruskal-Wallis test for multiple comparisons.

CAT192: fully human monoclonal anti-TGF-β1 antibody generated by phage display, described in WO 00/66631
Kd [1]: ~8.4 pM
TGF-β isoform binding specificity [1]: specifically binds TGF-β only
systolic blood pressure at end of treatment [2]: displayed an anti-hypertensive effect

NCCCC[C@H](N[C@@H](CCc1ccccc1)C(=O)O)C(=O)N1CCC[C@H]1C(=O)O [lisinopril, 1-[N2-[(S)-1-carboxy-3-phenylpropyl]-L-lysyl]-L-proline]
systolic blood pressure at end of treatment [2]: limited blood pressure increase to a similar extent as 1D11
percentage of glomeruli with sclerotic changes (in words) [3]: limited the percentage of glomeruli with sclerosis to a similar degree as 1D 11

CCOC(=O)[C@H](CCc1ccccc1)N[C@@H](C)C(=O)N1CCC[C@H]1C(=O)O [enalapril, 1-[N-[(S)-1-carboxy-3-phenylpropyl]-L-alanyl]-L-proline-1′-ethyl ester]
Systolic blood pressure ([4]; early phase study, week 27, before treatment (baseline of group)): 148.33 ± 2.47 mmHg
Systolic blood pressure ([4]; early phase treatment from week 27, week 36): 127.50 ± 2.81**°° mmHg
Systolic blood pressure ([4]; early phase treatment from week 27, week 45): 118.33 ± 2.47°° mmHg
Systolic blood pressure ([4]; early phase treatment from week 27, week 52): 117.50 ± 2.14°° mmHg
Serum creatinine [5]: 0.56 ± 0.07 mg/dL
Interstitial inflammation (score) ([6]; graded 0 to 4+): 0.60 ± 0.24 score
Tubular damage (score) ([6]; graded 0 to 4+): 0.60 ± 0.24 score
Glomeruli with sclerotic changes [6]: 4.60 ± 2.19%
Interstitial inflammation (score) ([7]; graded 0 to 4+): 0.33 ± 0.21 score
Tubular damage (score) ([7]; graded 0 to 4+): 0.50 ± 0.22 score
Glomeruli with sclerotic changes [7]: 1.53 ± 0.32° %
proteinuria (in words) [8]: similarly efficacious in reducing proteinuria
proteinuria (in words) [9]: similarly efficacious in reducing proteinuria
Systolic blood pressure ([10]; late phase study, week 36, before therapy (given weeks 52 to 61)): 158.33 ± 2.79 mmHg
Systolic blood pressure ([10]; late phase study, week 52, start of therapy (given weeks 52 to 61)): 165.00 ± 2.89 mmHg
Systolic blood pressure ([10]; late phase treatment, weeks 52 to 61, week 61): 135.00 ± 1.58**°° mmHg
Urinary albumin excretion [11]: 4.70 ± 0.83*°# mg/day
Urinary albumin excretion [12]: 30.40 ± 15.08 mg/day
Serum creatinine [13]: 0.49 ± 0.07 mg/dL
